Measured values taken from ChEMBL document CHEMBL1201862, “PubChem BioAssay data set” (2004).
Active and inactive are the calls of the source.

What was measured:
[1] = biological target: T1, Heat shock factor protein 1 (Mus musculus, UniProt P38532); test: decrease of HSF1-responsive luciferase luminescence – cell-based, NIH3T3, dose retest, confirmation (AID 2382); assay type: functional;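 also: NIH3T3 fibroblasts with HSF1-driven luciferase reporter stressed by proteasome inhibitor MG132; luminescence from HSF1-driven luciferase expression after 8 hours of MG132 stress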
T1 sequence (P38532 whole entry): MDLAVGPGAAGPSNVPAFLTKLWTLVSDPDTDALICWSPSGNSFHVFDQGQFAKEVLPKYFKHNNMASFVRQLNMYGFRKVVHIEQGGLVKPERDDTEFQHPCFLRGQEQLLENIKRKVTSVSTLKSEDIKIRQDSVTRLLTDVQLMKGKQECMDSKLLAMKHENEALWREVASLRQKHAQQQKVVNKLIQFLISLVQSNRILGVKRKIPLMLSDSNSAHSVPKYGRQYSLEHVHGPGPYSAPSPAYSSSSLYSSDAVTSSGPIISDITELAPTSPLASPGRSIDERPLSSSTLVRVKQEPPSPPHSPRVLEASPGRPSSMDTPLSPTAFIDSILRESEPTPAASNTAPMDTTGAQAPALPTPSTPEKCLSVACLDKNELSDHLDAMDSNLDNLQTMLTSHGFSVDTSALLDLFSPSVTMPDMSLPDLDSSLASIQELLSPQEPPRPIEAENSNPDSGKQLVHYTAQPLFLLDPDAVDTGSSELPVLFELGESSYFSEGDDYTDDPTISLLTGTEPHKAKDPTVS

CHO-K1 = test: Counterscreen for antagonists of the orexin 1 receptor (OX1R; HCRTR1): Homogeneous time resolved fluorescence (HTRF)-based cell-based dose response assay to identify antagonists of the parental CHO-K1 cell line. [Related pubchem assays (depositor defined):AID434989, AID435008, AID463079, AID485270, AID492963, AID492964, AID492965, AID493232, AID504699, AID504701]; assay type: functional; conditions: Cricetulus griseus
[2] = Counterscreen for antagonists of the orexin 1 receptor (OX1R; HCRTR1): Fluorescence-based cell-based high throughput dose response assay to identify antagonists of the parental CHO cell line. [Related pubchem assays (depositor defined):AID434989, AID435008, AID463079, AID485270, AID492963, AID492964, AID492965, AID493232, AID504699, AID504701]; assay type: functional
[3] = biological target: T2, Orexin/Hypocretin receptor type 1 (Homo sapiens, UniProt O43613); test: Homogeneous Time Resolved Fluorescence (HTRF)-based cell-based high throughput dose response assay for antagonists of the orexin 1 receptor (OX1R; HCRTR1). [Related pubchem assays (depositor defined):AID434989, AID435008, AID463079, AID485270, AID492963, AID492964, AID492965, AID493232, AID504717, AID504718]; assay type: functional
T2 sequence (O43613 whole entry): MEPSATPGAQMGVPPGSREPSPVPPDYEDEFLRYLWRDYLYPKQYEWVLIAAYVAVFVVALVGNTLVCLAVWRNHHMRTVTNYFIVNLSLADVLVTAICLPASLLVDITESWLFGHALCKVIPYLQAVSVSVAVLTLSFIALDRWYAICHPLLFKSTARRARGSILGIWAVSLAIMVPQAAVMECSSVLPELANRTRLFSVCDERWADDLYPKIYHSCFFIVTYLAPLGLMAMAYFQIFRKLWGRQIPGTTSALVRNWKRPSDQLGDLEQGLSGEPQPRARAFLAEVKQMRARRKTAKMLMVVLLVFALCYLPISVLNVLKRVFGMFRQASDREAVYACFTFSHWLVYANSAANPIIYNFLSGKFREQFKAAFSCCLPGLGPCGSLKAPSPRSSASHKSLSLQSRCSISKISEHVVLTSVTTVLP

[4] = biological target: T2, Orexin/Hypocretin receptor type 1; test: Fluorescence-based cell-based high throughput dose response assay for antagonists of the orexin 1 receptor (OX1R; HCRTR1). [Related pubchem assays (depositor defined):AID434989, AID435008, AID463079, AID485270, AID492963, AID492964, AID492965, AID493232, AID504717, AID504718]; assay type: functional
[5] = biological target: T3, Replicative DNA helicase DnaB (Mycobacterium tuberculosis, UniProt P9WMR3); test: DnaB intein splicing inhibitors, dose response, biochemical, cell-free fluorescence (AID 449749); assay type: functional
T3 sequence (P9WMR3 whole entry): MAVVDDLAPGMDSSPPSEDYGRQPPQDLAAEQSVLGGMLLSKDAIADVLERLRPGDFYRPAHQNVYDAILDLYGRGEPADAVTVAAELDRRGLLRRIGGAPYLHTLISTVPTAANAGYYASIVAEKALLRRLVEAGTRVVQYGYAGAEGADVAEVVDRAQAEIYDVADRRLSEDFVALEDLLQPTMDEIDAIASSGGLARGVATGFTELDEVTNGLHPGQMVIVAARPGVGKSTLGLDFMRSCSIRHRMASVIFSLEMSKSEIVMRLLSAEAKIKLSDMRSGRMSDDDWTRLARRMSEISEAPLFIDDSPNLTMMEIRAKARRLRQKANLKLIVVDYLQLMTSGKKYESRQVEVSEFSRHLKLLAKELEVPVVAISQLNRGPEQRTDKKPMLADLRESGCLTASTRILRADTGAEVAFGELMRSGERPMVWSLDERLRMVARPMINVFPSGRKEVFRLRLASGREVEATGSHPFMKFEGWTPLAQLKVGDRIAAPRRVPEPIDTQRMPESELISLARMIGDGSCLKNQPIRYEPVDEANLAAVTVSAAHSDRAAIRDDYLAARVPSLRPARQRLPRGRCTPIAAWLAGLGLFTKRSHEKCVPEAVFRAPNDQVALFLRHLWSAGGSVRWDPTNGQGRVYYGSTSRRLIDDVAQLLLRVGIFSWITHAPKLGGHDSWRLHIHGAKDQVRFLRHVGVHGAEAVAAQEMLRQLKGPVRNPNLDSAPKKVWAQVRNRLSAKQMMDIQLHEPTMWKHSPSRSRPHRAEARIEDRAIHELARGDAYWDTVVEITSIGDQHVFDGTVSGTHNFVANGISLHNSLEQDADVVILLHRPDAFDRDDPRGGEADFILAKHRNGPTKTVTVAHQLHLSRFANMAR

Protein RecA = biological target: T4, Protein RecA (Mycobacterium tuberculosis, UniProt P9WHJ3); test: Fluorescence Cell-Free Homogeneous Dose Retest to Identify Inhibitors of RecA-Intein Splicing Activity. [Related pubchem assays (depositor defined):AID2097, AID2223, AID489010, AID492950]; assay type: functional
T4 sequence (P9WHJ3 whole entry): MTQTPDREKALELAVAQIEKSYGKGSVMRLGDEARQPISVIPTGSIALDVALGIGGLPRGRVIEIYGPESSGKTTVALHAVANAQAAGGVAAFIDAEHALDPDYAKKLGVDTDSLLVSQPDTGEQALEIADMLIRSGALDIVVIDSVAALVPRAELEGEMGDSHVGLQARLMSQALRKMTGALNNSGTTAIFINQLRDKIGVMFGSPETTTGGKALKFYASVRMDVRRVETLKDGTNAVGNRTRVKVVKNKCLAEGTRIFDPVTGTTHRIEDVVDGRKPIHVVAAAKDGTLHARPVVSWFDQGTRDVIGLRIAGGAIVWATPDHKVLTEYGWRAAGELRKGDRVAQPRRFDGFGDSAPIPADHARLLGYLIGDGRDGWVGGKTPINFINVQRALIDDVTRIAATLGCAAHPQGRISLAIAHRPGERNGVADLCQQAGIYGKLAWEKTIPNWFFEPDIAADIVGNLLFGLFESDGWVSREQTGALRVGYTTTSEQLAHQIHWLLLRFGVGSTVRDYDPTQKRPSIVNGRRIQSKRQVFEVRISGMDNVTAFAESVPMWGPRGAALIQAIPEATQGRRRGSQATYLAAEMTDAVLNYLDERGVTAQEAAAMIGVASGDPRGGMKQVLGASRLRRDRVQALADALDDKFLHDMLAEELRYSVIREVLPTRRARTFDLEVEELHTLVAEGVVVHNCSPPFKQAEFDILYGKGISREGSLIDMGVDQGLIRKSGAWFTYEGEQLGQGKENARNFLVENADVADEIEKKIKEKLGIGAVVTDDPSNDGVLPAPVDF

Cytochrome P450 2D6 = Cytochrome P450 2D6 (Homo sapiens, UniProt P10635);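 also: CYP2D6 member of a cytochrome P450 panel assay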
Chain of Cytochrome P450 2D6 (P10635 whole entry): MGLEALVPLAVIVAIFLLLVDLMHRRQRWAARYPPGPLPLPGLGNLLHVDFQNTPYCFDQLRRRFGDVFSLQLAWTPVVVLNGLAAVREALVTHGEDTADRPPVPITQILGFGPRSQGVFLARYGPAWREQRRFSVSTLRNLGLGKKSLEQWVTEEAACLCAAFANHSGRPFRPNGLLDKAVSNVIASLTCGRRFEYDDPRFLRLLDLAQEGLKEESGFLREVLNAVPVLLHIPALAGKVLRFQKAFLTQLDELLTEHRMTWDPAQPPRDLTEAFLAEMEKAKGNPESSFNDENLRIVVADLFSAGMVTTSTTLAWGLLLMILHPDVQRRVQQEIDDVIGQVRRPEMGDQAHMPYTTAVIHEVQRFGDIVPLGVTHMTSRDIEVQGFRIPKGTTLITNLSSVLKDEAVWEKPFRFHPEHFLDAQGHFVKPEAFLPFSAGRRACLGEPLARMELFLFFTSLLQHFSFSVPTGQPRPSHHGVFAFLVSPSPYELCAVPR

HEK293 [6] = test: inhibition of NOD1-driven NF-kB reporter – cell-based, luminescence, uHTS, primary screen (AID 1578); assay type: functional; conditions: Homo sapiens
HEK293 [7] = test: cells; assay type: functional, cell-based; conditions: Homo sapiens
HEK293 [8] = test: cells; assay type: functional, cell-based; conditions: Homo sapiens; remark: listed apart in the source
HEK293 [9] = test: NOD2 signaling inhibitors in MDP-stimulated cells, cell-based, uHTS, luminescence (AID 2001); assay type: functional; conditions: Homo sapiens
Galanin receptor type 3 = biological target: T5, Galanin receptor type 3 (Homo sapiens, UniProt O60755); test: Fluorescence-based cell-based primary high throughput dose response assay to identify antagonists of the Galanin Receptor 3 (GalR3).; assay type: functional
T5 sequence (O60755 whole entry): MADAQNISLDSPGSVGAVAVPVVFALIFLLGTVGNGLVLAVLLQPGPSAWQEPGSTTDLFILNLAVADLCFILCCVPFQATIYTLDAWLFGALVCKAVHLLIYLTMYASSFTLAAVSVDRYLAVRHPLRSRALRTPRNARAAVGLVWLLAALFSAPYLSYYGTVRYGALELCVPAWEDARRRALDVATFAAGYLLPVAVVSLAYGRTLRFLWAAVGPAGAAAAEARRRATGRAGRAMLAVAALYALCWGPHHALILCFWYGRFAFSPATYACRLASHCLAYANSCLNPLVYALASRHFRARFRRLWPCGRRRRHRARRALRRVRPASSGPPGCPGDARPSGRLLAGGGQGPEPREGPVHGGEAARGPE

cells = assay type: functional, cell-based; conditions: HEK-CNG
[10] = luciferase reporter signal suppression in cells – H4 neuroglioma cells, luminescence, dose response (AID 1990); assay type: functional, cell-based
[11] = Luminescence Cell-Based Dose Response HTS to Identify Inhibitors of 5'UTR Stem-Loop Driven Prion Protein mRNA Translation in H4 Neuroglioblastoma Cells. [Related pubchem assays: 1827 (Project Summary), 1813 (Primary HTS)]; assay type: functional
[12] = alpha-synuclein stem-loop luciferase translation blockers – H4 neuroglioma cells, luminescence, confirmation (AID 1988); assay type: functional, cell-based
HEK293 [13] = test: cells; conditions: Homo sapiens
HEK293 [14] = test: cells; conditions: Homo sapiens; remark: listed apart in the source
Cytochrome P450 2C19 = Cytochrome P450 2C19 (Homo sapiens, UniProt P33261); test: Cytochrome panel assay with activity outcomes. Panel member name: p450-cyp2c19 Compounds with AC50 equal or less than 10 uM are considered active; assay type: functional; conditions: read-out: AC50
Chain of Cytochrome P450 2C19 (P33261 whole entry): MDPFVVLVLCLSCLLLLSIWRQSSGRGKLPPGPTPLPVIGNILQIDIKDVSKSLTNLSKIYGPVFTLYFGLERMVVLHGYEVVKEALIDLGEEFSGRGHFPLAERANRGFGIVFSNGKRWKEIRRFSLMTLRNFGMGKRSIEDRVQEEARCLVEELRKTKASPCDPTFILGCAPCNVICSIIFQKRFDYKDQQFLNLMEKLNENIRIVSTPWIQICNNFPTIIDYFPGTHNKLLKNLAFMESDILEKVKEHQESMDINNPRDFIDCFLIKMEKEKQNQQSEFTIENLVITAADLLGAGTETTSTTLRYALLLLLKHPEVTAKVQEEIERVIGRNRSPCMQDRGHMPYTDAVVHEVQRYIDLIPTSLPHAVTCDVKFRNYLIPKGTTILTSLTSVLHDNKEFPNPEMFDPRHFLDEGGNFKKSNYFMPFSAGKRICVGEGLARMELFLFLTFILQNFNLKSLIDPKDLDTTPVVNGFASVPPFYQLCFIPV

Cytochrome P450 1A2 = biological target: T6, Cytochrome P450 1A2 (Homo sapiens, UniProt P05177);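 also: PubChem cytochrome P450 panel assay, CYP1A2 panel member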
T6 sequence (P05177 whole entry): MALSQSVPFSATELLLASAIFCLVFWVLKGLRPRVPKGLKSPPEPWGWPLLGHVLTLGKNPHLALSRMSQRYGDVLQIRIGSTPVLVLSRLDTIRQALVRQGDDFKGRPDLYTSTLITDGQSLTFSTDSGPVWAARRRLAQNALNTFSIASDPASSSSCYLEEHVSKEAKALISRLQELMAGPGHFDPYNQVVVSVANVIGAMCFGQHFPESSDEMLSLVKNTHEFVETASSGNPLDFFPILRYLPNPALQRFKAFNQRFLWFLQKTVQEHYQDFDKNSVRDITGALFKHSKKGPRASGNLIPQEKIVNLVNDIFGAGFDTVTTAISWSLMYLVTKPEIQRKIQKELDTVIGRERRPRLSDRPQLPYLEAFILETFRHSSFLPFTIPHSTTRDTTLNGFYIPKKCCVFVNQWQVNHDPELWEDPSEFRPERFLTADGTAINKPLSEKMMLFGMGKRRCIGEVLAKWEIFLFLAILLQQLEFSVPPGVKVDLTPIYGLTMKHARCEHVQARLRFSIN

Cytochrome P450 3A4 = Cytochrome P450 3A4 (Homo sapiens, UniProt P08684);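 also: CYP3A4 tested as one member of a cytochrome P450 panel screen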
Chain of Cytochrome P450 3A4 (P08684 whole entry): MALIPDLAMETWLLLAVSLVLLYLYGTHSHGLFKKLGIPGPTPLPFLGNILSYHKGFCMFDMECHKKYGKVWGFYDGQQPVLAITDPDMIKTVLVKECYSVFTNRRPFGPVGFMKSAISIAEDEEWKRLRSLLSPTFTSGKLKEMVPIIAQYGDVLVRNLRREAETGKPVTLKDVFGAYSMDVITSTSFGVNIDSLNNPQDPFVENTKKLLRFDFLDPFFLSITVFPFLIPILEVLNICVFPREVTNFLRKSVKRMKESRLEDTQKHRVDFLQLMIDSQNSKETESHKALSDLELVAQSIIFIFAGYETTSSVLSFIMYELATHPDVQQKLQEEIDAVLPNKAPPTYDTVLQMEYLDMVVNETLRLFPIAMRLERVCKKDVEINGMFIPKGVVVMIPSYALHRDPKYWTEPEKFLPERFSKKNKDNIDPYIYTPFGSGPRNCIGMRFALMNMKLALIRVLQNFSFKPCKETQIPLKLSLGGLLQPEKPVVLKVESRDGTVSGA

## O=S(=O)(Nc1c(O)ccc2ccccc12)c1cccc2ccccc12
[1]
  EC50: 15.7 µM (active)
CHO-K1
  IC50: 56.9 µM (inactive)
[2]
  IC50: 39.2 µM (inactive)
[3]
  IC50: 2.85 µM (active)
[4]
  IC50: 13.1 µM (inactive)
[5]
  AC50: 4.4 µM (active)
Protein RecA
  EC50: 1.77 µM (active)

## c1cncc(CNCc2cccnc2)c1
Cytochrome P450 2D6
  AC50: inconclusive

## COc1ccc(NS(=O)(=O)c2ccc(NC(=O)c3ccc(CN4CCOCC4)cc3)cc2)cc1
HEK293 [6]
  EC50: 4.22 µM (active)
HEK293 [7]
  IC50: 5.35 µM (active)
HEK293 [8]
  IC50: > 20 µM (inactive)
HEK293 [9]
  IC50: 7.65 µM (active)
Galanin receptor type 3
  IC50: 2.94 µM (active)
cells
  EC50: > 29.9 µM (inactive)

## COc1ccc(-c2nn3c(C4CCCCC4)nnc3s2)cc1OC
[10]
  EC50: 15.5 µM (active)
[11]
  EC50: 18.1 µM (active)
[12]
  EC50: 13.5 µM (active)
HEK293 [13]
  EC50: > 59.7 µM (inactive)
HEK293 [14]
  EC50: > 59.7 µM (inactive)

## CCc1ccc(NC(=O)CCn2nc(C)c(S(=O)(=O)N3CCCCC3)c2C)cc1
HEK293 [13]
  EC50: > 59.7 µM (inactive)
HEK293 [14]
  EC50: > 59.7 µM (inactive)

## CC(C)C(=O)N/N=C/c1ccc(OCc2ccccc2)cc1
Cytochrome P450 2C19
  AC50: 10 µM (inconclusive)
Cytochrome P450 1A2
  AC50: 15.8 µM (inconclusive)
Cytochrome P450 2D6
  AC50: inconclusive
Cytochrome P450 3A4
  AC50: inconclusive

## O=C(Nc1ccc(Br)c2ccccc12)c1ccc2ccccc2c1O
HEK293 [6]
  EC50: 0.79 µM (active)
HEK293 [7]
  IC50: 2.6 µM (active)
HEK293 [8]
  IC50: 13.7 µM (active)
HEK293 [9]
  IC50: 1.91 µM (active)

## O=C1C=CC(O)C2(CO)OC12 (stereo unspecified)
HEK293 [13]
  EC50: > 59.6 µM (inactive)
HEK293 [14]
  EC50: > 59.6 µM (inactive)
